The source of these data is patent US11970494B2, “6-heteroaryloxy benzimidazoles and azabenzimidazoles as JAK2 inhibitors” (Ajax Therapeutics, Inc., priority 2021, dated 2024).

pKd: −log10 of the molar value.

T1 sequence (O60674 849-1124 Y1007F/Y1008F limits assumed): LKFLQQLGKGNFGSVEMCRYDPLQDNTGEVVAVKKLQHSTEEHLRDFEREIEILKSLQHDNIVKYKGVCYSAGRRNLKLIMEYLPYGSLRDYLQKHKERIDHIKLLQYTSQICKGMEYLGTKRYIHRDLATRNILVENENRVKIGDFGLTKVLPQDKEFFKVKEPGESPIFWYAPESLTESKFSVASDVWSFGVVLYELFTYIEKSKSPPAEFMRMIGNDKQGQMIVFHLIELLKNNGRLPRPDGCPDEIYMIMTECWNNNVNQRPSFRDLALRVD

The experiment addresses T1, JAK2 (JH1 domain-catalytic, Y1007F,Y1008F) kinase (Homo sapiens, UniProt O60674, Y1007F/Y1008F).
T1 construct: made in house; host or cells: transiently transfected HEK293 cells
In words: JAK2 Binding Assay (JAK2 JH1 Domain Binding Assay). As to conditions: JAK2 JH1 domain binding, qPCR detection; read-out: JAK2 Kd. (In general: In qPCR the cycle at which signal appears reflects the starting amount.)
A word on the pKd: it is −log10 of the Kd, conventionally taken in molar units. Take `Cn1cc(C(F)(F)F)cc(Nc2nc3ncc(Oc4ccnc(NC(=O)O[C@H]5CCOC5)c4)c(C#N)c3n2C)c1=O` [Example I-17, (S)-Tetrahydrofuran-3-yl(4-((7-cyano-1-methyl-2-((1-methyl-2-oxo-5-(trifluoromethyl)-1,2-dihydropyridin-3-yl)amino)-1H-imidazo[4,5-b]pyridin-6-yl)oxy)pyridin-2-yl)carbamate]: the pKd was over 8.00.
For the compound `CN(C)CCOC(=O)Nc1cc(Oc2cnc3nc(Nc4cc(C(F)(F)F)cn(C)c4=O)n(C)c3c2Cl)ccn1` [Example I-19, 2-(Dimethylamino)ethyl(4-((7-chloro-1-methyl-2-((1-methyl-2-oxo-5-(trifluoromethyl)-1,2-dihydropyridin-3-yl)amino)-1H-imidazo[4,5-b]pyridin-6-yl)oxy)pyridin-2-yl)carbamate], the pKd is over 8.00.
Consider `Cn1cc(C(F)(F)F)cc(Nc2nc3ncc(Oc4ccnc(NC(=O)OCCO)c4)c(C#N)c3n2C)c1=O` [Example I-20, 2-Hydroxyethyl(4-((7-cyano-1-methyl-2-((1-methyl-2-oxo-5-(trifluoromethyl)-1,2-dihydropyridin-3-yl)amino)-1H-imidazo[4,5-b]pyridin-6-yl)oxy)pyridin-2-yl)carbamate], for which the negative logarithm of the Kd (pKd) was over 8.00.
The figure for `CN(C)C(=O)Nc1cc(Oc2cnc3nc(Nc4cc5n(n4)CCCC5(F)F)n(C)c3c2C#N)ccn1` [Example I-21, 3-(4-((7-cyano-2-((4,4-difluoro-4,5,6,7-tetrahydropyrazolo[1,5-a]pyridin-2-yl)amino)-1-methyl-1H-imidazo[4,5-b]pyridin-6-yl)oxy)pyridin-2-yl)-1,1-dimethylurea] is over 8.00; for `COC(=O)Nc1cc(Oc2cnc3nc(Nc4cc5n(n4)CCCC5(F)F)n(C)c3c2C#N)ccn1` [Example I-22, Methyl(4-((7-cyano-2-((4,4-difluoro-4,5,6,7-tetrahydropyrazolo[1,5-a]dpyridin-2-yl)amino)-1-methyl-1H-imidazo[4,5-b]pyridin-6-yl)oxy)pyridin-2-yl)carbamate] it is over 8.00.
Then `Cn1c(Nc2cc3n(n2)CCCC3(F)F)nc2ncc(Oc3ccnc(NC(=O)N4CCCC4)c3)c(C#N)c21` [Example I-23, N-(4-((7-cyano-2-((4,4-difluoro-4,5,6,7-tetrahydropyrazolo[1,5-a]pyridin-2-yl)amino)-1-methyl-1H-imidazo[4,5-b]pyridin-6-yl)oxy)pyridin-2-yl)pyrrolidine-1-carboxamide], with over 8.00.
`CN1CCN(C(=O)Nc2cc(Oc3cnc4nc(Nc5cc6n(n5)CCCC6(F)F)n(C)c4c3C#N)ccn2)CC1` [Example I-24, N-(4-((7-cyano-2-((4,4-difluoro-4,5,6,7-tetrahydropyrazolo[1,5-a]pyridin-2-yl)amino)-1-methyl-1H-imidazo[4,5-b]pyridin-6-yl)oxy)pyridin-2-yl)-4-methylpiperazine-1-carboxamide]: the pKd was 7.30 to 8.00.
As for `Cn1c(Nc2cc3n(n2)CCCC3(F)F)nc2ncc(Oc3ccnc(NC(=O)N4CCOCC4)c3)c(C#N)c21` [Example I-25, N-(4-((7-cyano-2-((4,4-difluoro-4,5,6,7-tetrahydropyrazolo[1,5-a]pyridin-2-yl)amino)-1-methyl-1H-imidazo[4,5-b]pyridin-6-yl)oxy)pyridin-2-yl)morpholine-4-carboxamide], the pKd is 7.30 to 8.00.
In the case of `CNC(=O)Nc1cc(Oc2cnc3nc(Nc4cc5n(n4)CCCC5(F)F)n(C)c3c2C#N)ccn1` [Example I-27, 1-(4-((7-cyano-2-((4,4-difluoro-4,5,6,7-tetrahydropyrazolo[1,5-a]pyridin-2-yl)amino)-1-methyl-1H-imidazo[4,5-b]pyridin-6-yl)oxy)pyridin-2-yl)-3-methylurea], the pKd was over 8.00.
For the compound `Cn1c(Nc2cc3n(n2)CCCC3(F)F)nc2ncc(Oc3ccnc(NC(=O)N4CC[C@@H](O)C4)c3)c(C#N)c21` [Example I-28, (R)-N-(4-((7-cyano-2-((4,4-difluoro-4,5,6,7-tetrahydropyrazolo[1,5-c]pyridin-2-yl)amino)-1-methyl-1H-imidazo[4,5-b]pyridin-6-yl)oxy)pyridin-2-yl)-3-hydroxypyrrolidine-1-carboxamide], the pKd is over 8.00.
Consider `Cn1c(Nc2cc3n(n2)CCCC3(F)F)nc2ncc(Oc3ccnc(NC(=O)N4CC[C@H](O)C4)c3)c(C#N)c21` [Example I-29, (S)-N-(4-((7-cyano-2-((4,4-difluoro-4,5,6,7-tetrahydropyrazolo[1,5-a]pyridin-2-yl)amino)-1-methyl-1H-imidazo[4,5-b]pyridin-6-yl)oxy)pyridin-2-yl)-3-hydroxypyrrolidine-1-carboxamide], for which the pKd is 7.30 to 8.00.
On to `COC(=O)Nc1cc(Oc2cnc3nc(Nc4cc(C(F)(F)F)n(C5CC6(COC6)C5)n4)n(C)c3c2C#N)ccn1` [Example I-31, Methyl(4-((2-((1-(2-oxaspiro[3.3]heptan-6-yl)-5-(trifluoromethyl)-1H-pyrazol-3-yl)amino)-7-cyano-1-methyl-1H-imidazo[4,5-b]pyridin-6-yl)oxy)pyridin-2-yl)carbamate], for which the negative-log Kd (pKd) is 7.30 to 8.00.
Turning to `COCCOC(=O)Nc1cc(Oc2cnc3nc(Nc4cc5n(n4)CCCC5(F)F)n(C)c3c2C#N)ccn1` [Example I-32, 2-Methoxyethyl(4-((7-cyano-2-((4,4-difluoro-4,5,6,7-tetrahydropyrazolo[1,5-a]pyridin-2-yl)amino)-1-methyl-1H-imidazo[4,5-b]pyridin-6-yl)oxy)pyridin-2-yl)carbamate], the pKd was over 8.00.
For `CO[C@@H]1CCN(C(=O)Nc2cc(Oc3cnc4nc(Nc5cc6n(n5)CCCC6(F)F)n(C)c4c3C#N)ccn2)C1` [Example I-33], the pKd was over 8.00.
Regarding `CO[C@H]1CCN(C(=O)Nc2cc(Oc3cnc4nc(Nc5cc6n(n5)CCCC6(F)F)n(C)c4c3C#N)ccn2)C1` [Example I-34, (S)-N-(4-((7-cyano-2-((4,4-difluoro-4,5,6,7-tetrahydropyrazolo[1,5-a]pyridin-2-yl)amino)-1-methyl-1H-imidazo[4,5-b]pyridin-6-yl)oxy)pyridin-2-yl)-3-methoxypyrrolidine-1-carboxamide], the pKd was over 8.00.
As for `Cn1c(Nc2cc3n(n2)CCCC3(F)F)nc2ncc(Oc3ccnc(NC(=O)N4CC(O)C4)c3)c(C#N)c21` [Example I-35, N-(4-((7-cyano-2-((4,4-difluoro-4,5,6,7-tetrahydropyrazolo[1,5-a]pyridin-2-yl)amino)-1-methyl-1H-imidazo[4,5-b]pyridin-6-yl)oxy)pyridin-2-yl)-3-hydroxyazetidine-1-carboxamide], the pKd was over 8.00.
Turning to `Cn1c(Nc2cc3n(n2)CCCC3(F)F)nc2ncc(Oc3ccnc(NC(=O)O[C@H]4CCOC4)c3)c(C#N)c21` [Example I-36, (S)-tetrahydrofuran-3-yl(4-((7-cyano-2-((4,4-difluoro-4,5,6,7-tetrahydropyrazolo[1,5-a]pyridin-2-yl)amino)-1-methyl-1H-imidazo[4,5-b]pyridinyl)oxy)pyridin-2-yl)carbamate], the pKd is over 8.00.
For the compound `Cn1c(Nc2cc3n(n2)CCCC3(F)F)nc2ncc(Oc3ccnc(NC(=O)O[C@@H]4CCOC4)c3)c(C#N)c21` [Example I-37, (R)-tetrahydrofuran-3-yl(4-((7-cyano-2-((4,4-difluoro-4,5,6,7-tetrahydropyrazolo[1,5-a]pyridin-2-yl)amino)-1-methyl-1H-imidazo[4,5-b]pyridin-6-yl)oxy)pyridin-2-yl)carbamate], the pKd was over 8.00.
For `CN(C)CCOC(=O)Nc1cc(Oc2cnc3nc(Nc4cc5n(n4)CCCC5(F)F)n(C)c3c2C#N)ccn1` [Example I-38, 2-(Dimethylamino)ethyl(4-((7-cyano-2-((4,4-difluoro-4,5,6,7-tetrahydropyrazolo[1,5-a]pyridin-2-yl)amino)-1-methyl-1H-imidazo[4,5-b]pyridin-6-yl)oxy)pyridin-2-yl)carbamate], the pKd is over 8.00.
In the case of `CN1CC(OC(=O)Nc2cc(Oc3cnc4nc(Nc5cc(C(F)(F)F)cn(C)c5=O)n(C)c4c3C#N)ccn2)C1` [Example I-39, 1-Methylazetidin-3-yl(4-((7-cyano-1-methyl-2-((1-methyl-2-oxo-5-(trifluoromethyl)-1,2-dihydropyridin-3-yl)amino)-1H-imidazo[4,5-b]pyridin-6-yl)oxy)pyridin-2-yl)carbamate], the pKd is 6.00 to 7.30.
Regarding `COC(=O)Nc1cc(Oc2cnc3nc(Nc4cc5n(n4)CCN(C)C5=O)n(C)c3c2Cl)ccn1` [Example I-40, Methyl(4-((7-chloro-1-methyl-2-((5-methyl-4-oxo-4,5,6,7-tetrahydropyrazolo[1,5-a]pyrazin-2-yl)amino)-1H-imidazo[4,5-b]pyridin-6-yl)oxy)pyridin-2-yl)carbamate], the pKd is 5.30 to 6.00.
For the compound `COC(=O)Nc1cc(Oc2cnc3nc(Nc4cc5n(n4)CCN(C)C5=O)n(C)c3c2C#N)ccn1` [Example I-41, Methyl(4-((7-cyano-1-methyl-2-((5-methyl-4-oxo-4,5,6,7-tetrahydropyrazolo[1,5-a]pyrazin-2-yl)amino)-1H-imidazo[4,5-b]pyridin-6-yl)oxy)pyridin-2-yl)carbamate], the pKd is 6.00 to 7.30.
For the compound `Cn1cc(C(F)(F)F)cc(Nc2nc3ncc(Oc4ccnc(NC(=O)NC5CC5)c4)c(C#N)c3n2C)c1=O` [Example I-42, 1-(4-((7-cyano-1-methyl-2-((1-methyl-2-oxo-5-(trifluoromethyl)-1,2-dihydropyridin-3-yl)amino)-1H-imidazo[4,5-b]pyridin-6-yl)oxy)pyridin-2-yl)-3-cyclopropylurea], the pKd is over 8.00.
Then `COC(=O)Nc1cc(Oc2cnc3nc(Nc4cc5n(n4)CCOC5(C)C)n(C)c3c2C#N)ccn1` [Example I-43, Methyl(4-((7-cyano-2-((4,4-dimethyl-6,7-dihydro-4H-pyrazolo[5,1-c][1,4]oxazin-2-yl)amino)-1-methyl-1H-imidazo[4,5-b]pyridin-6-yl)oxy)pyridin-2-yl)carbamate], with over 8.00; and `CN(C)C(=O)Nc1cc(Oc2cnc3nc(Nc4cc5n(n4)CCOC5(C)C)n(C)c3c2C#N)ccn1` [Example I-44, 3-(4-((7-cyano-2-((4,4-dimethyl-6,7-dihydro-4H-pyrazolo[5,1-c][1,4]oxazin-2-yl)amino)-1-methyl-1H-imidazo[4,5-b]pyridin-6-yl)oxy)pyridin-2-yl)-1,1-dimethylurea], with over 8.00.
